The values that follow come from patent US9273018B2, “Piperazine derivatives” (St. Mary's University, priority 2011, dated 2016).

Holding throughout (format): cell-based
The test system of test [1] is U87MG glioblastoma cancer cells. Put plainly: Cytotoxicity of glioblastoma cancer cells (relative cell density). As to conditions: Homo sapiens, U-87 MG, relative cell density as percent of control, FIG. 1, read-out: LD50 (the source's name). How it is done: U87MG glioblastoma cancer cells were cultured according to established protocols (Martinkova et al., Cytotoxicity of and DNA adduct formation by ellipicine in human U87MG glioblastoma cancer cells. Neuro Endocrinol Lett 30 (Suppl 1):60-6, 2009). Temozolomide was added to the cell culture media at increasing doses and the relative cell density, as a percent of control cells not exposed to temozolomide, was calculated. Temozolomide is one of the primary treatments for glioblastoma type cancers and dacarbazine is an antineoplastic chemotherapy used in the treatment of various cells.
To test the cytotoxic effect of 1-[(E)-2-(4-nitrophenyl)diazen-1-yl]-4-phenylpiperazine, 4-[(E)-2-(4-phenylpiperazin-1-yl)diazen-1-yl]benzonitrile, methyl 4-[(E)-2-(4-phenylpiperazin-1-yl)diazen-1-yl]benzoate, methyl 4-[(E)-2-[4-(4-chlorophenyl)piperazin-1-yl)diazen-1-yl]benzoate, 1-[(E)-2-(4-bromophenyl)diazen-1-yl]-4-[(3-methylphenyl)methyl]piperazine, 4-[(E)-2-{4-[(3-methylphenyl)methyl]piperazin-1-yl}diazen-1-yl]benzonitrile serial dilutions of the compounds were made and added to the cell culture media containing the U87MG glioblastoma cancer cells. The relative cell density, as a percent of control cells not exposed to temozolomide, dacarbazine or the experimental compounds, was calculated.

The subject of a further test is A549 lung cancer cells. Briefly: Cytotoxicity of A549 lung cancer cells (relative cell density). As to conditions: relative cell density as percent of control, FIG. 2. Here is the method:
A549 lung cancer cells were cultured according to established protocols (Lieber M. et al., Int. J. Cancer 17: 62-70, 1976). Temozolomide and dacarbazine were separately added to the cell culture media at increasing doses and the relative cell density, as a percent of control cells not exposed to temozolomide or dacarbazine, was calculated.
To test the cytotoxic effect of 1-[(E)-2-(4-nitrophenyl)diazen-1-yl]-4-phenylpiperazine, methyl 4-[(E)-2-(4-phenylpiperazin-1-yl)diazen-1-yl]benzoate, 1-{4[(E)-2-[4-(3,4-dichlorophenyl)piperazin-1-yl]phenyl}ethan-1-one, 1-{4-[(E)-2-[4-pyridin-2-yl)piperazin-1-yl]diazen-1-yl]phenyl}ethan-1-one, serial dilutions of the compounds were made and added to the cell culture media containing the A549 lung cancer cells. The relative cell density, as a percent of control cells not exposed to temozolomide, dacarbazine or the experimental compounds, was calculated.

For the next test, the system named is HT29 colon cancer cells. Briefly: Cytotoxicity of HT29 colon cancer cells (relative cell density). As to conditions: Homo sapiens, HT-29, relative cell density as percent of control, FIG. 3, read-out: LD50 (the source's name).

In the case of `O=[N+]([O-])c1ccc(/N=N/N2CCN(c3ccccc3)CC2)cc1` [Compound 1, 1-[(E)-2-(4-nitrophenyl)diazen-1-yl]-4-phenylpiperazine], the figures for the IC50 (in test [1]; in the test on HT29 colon cancer cells) were 4.36 µM and 2.5 µM, respectively. In the test on A549 lung cancer cells, this compound gave an LD50 of 5.27 µM.

On to `N#Cc1ccc(/N=N/N2CCN(c3ccccc3)CC2)cc1` [Compound 2, 4-[(E)-2-(4-phenylpiperazin-1-yl)diazen-1-yl]benzonitrile], for which the IC50 was 12.4 µM in test [1] and 2.6 µM in the test with HT29 colon cancer cells.

For `COC(=O)c1ccc(/N=N/N2CCN(c3ccccc3)CC2)cc1` [Compound 3, Methyl 4-[(E)-2-(4-phenylpiperazin-1-yl)diazen-1-yl]benzoate], the IC50 in test [1] came to 16.2 µM; in the test with HT29 colon cancer cells it was 3.9 µM. Further, in the test with A549 lung cancer cells, the LD50 was 25.5 µM.

For the compound `Cc1ccc(/N=N/N2CCN(c3ccccc3)CC2)cc1` [Compound 7, 1-[(E)-2-(4-methylphenyl)diazen-1-yl]-4-phenylpiperazine], the IC50 with HT29 colon cancer cells was determined as 9.6 µM.

For the compound `COC(=O)c1ccc(/N=N/N2CCN(c3ccc(Cl)cc3)CC2)cc1` [Compound 12, methyl 4-[(E)-2-[4-(4-chlorophenyl)piperazin-1-yl)diazen-1-yl]benzoate], the IC50 in test [1] was found to be 22.2 µM.

As to `CC(=O)c1ccc(/N=N/N2CCN(c3ccc(Cl)c(Cl)c3)CC2)cc1` [Compound 22], the LD50 in the test with A549 lung cancer cells is 3.4 µM. Moreover, the IC50 in the test on HT29 colon cancer cells was 3.4 µM.

In the case of `COC(=O)c1ccc(/N=N/N2CCN(c3ccccn3)CC2)cc1` [Compound 42, methyl 4-[(E)-2-[4-(pyridin-2-yl)piperazin-1-yl]diazen-1-yl]benzoate], the IC50 in the test on HT29 colon cancer cells is 14.6 µM.

Turning to `CC(=O)c1ccc(/N=N/N2CCN(c3ccccn3)CC2)cc1` [Compound 45], in the test with A549 lung cancer cells, the LD50 was 15.6 µM. Moreover, in the test with HT29 colon cancer cells, the IC50 worked out at 11.2 µM.

`N#Cc1ccccc1N1CCN(/N=N/c2ccc(Br)cc2)CC1` [Compound 49, 2-{4-[(E)-2-(4-bromophenyl)diazen-1-yl]piperazin-1-yl}benzonitrile]: the IC50 in the test with HT29 colon cancer cells came out at 5.2 µM.

Consider `Cc1cccc(CN2CCN(/N=N/c3ccc(C#N)cc3)CC2)c1` [Compound 68, 4-[(E)-2-{4-[(3-methylphenyl)methyl]piperazin-1-yl}diazen-1-yl]benzonitrile], for which the IC50 came to 14 µM in test [1] and 13.5 µM in the test on HT29 colon cancer cells.

As for `Cc1cccc(CN2CCN(/N=N/c3ccc(Br)cc3)CC2)c1` [Compound 70, 1-[(E)-2-(4-bromophenyl)diazen-1-yl]-4-[(3-methylphenyl)methyl]piperazine], the IC50 came out at 12.2 µM in test [1] and 17.6 µM in the test on HT29 colon cancer cells.

Take `Cn1nnc2c(C(N)=O)ncn2c1=O` [Temozolomide, reference compound]: the IC50 in test [1] stood at 25.5 µM. Further, the LD50 with A549 lung cancer cells is 60.4 µM.

As to `CN(C)/N=N/c1[nH]cnc1C(N)=O` [dacarbazine, reference compound], the results for the IC50 (in test [1]; with HT29 colon cancer cells) were 25 µM and 25.2 µM, respectively. Further, in the test with A549 lung cancer cells, the LD50 worked out at 25.7 µM.
